The supplement of paper PMC10307832

Key:
Assay in all cases: relative viability (nuclei count vs DMSO), 5 days (fraction); higher = more cells survive
[1] = compound: Nc1ccn([C@@H]2O[C@H](CO)[C@@H](O)C2(F)F)c(=O)n1 [Gemcitabine] + CCNC(=O)c1noc(-c2cc(C(C)C)c(O)cc2O)c1-c1ccc(CN2CCOCC2)cc1 [Luminespib] (partner 0.01 µM)
In short: (§1)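 After 5 days of treatment, lung cancer cells in 1536-well plates were fixed and stained in a single step (final 0.05% Triton X-100, 1% formaldehyde, 1 ug/ml Hoechst) and their nuclei counted on 4× images. Treatment had been applied by pin tool the day after seeding as one drug alone or as a fixed anchor-drug dose with five library-drug doses (not always all listed) in √10 steps. Relative viability is the nuclei count of treated wells divided by that of vehicle wells, and values are medians of duplicate plates.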

[2] = compound: Nc1ccn([C@@H]2O[C@H](CO)[C@@H](O)C2(F)F)c(=O)n1 [Gemcitabine] + CC1(C)CCC(c2ccc(Cl)cc2)=C(CN2CCN(c3ccc(C(=O)NS(=O)(=O)c4ccc(N[C@H](CCN5CCOCC5)CSc5ccccc5)c(S(=O)(=O)C(F)(F)F)c4)cc3)CC2)C1 [Navitoclax] (partner 0.5 µM)
In short: as §1

[3] = compound: Nc1ccn([C@@H]2O[C@H](CO)[C@@H](O)C2(F)F)c(=O)n1 [Gemcitabine] + Cc1nc(Nc2ncc(C(=O)Nc3c(C)cccc3Cl)s2)cc(N2CCN(CCO)CC2)n1 [Dasatinib] (partner 0.075 µM)
In short: as §1

[4] = compound: Nc1ccn([C@@H]2O[C@H](CO)[C@@H](O)C2(F)F)c(=O)n1 [Gemcitabine] + CC(C)C[C@H](NC(=O)[C@H](Cc1ccccc1)NC(=O)c1cnccn1)B(O)O [Bortezomib] (partner 0.002 µM)
In short: as §1

| Cell Line | relative viability ([1]; first compound 0.001 µM) | relative viability ([1]; first compound 0.003162 µM) | relative viability ([1]; first compound 0.01 µM) | relative viability ([1]; first compound 0.03162 µM) | relative viability ([1]; first compound 0.1 µM) | relative viability ([2]; first compound 0.001 µM) | relative viability ([2]; first compound 0.003162 µM) | relative viability ([2]; first compound 0.01 µM) | relative viability ([2]; first compound 0.03162 µM) | relative viability ([2]; first compound 0.1 µM) | relative viability ([3]; first compound 0.001 µM) | relative viability ([3]; first compound 0.003162 µM) | relative viability ([3]; first compound 0.01 µM) | relative viability ([3]; first compound 0.03162 µM) | relative viability ([3]; first compound 0.1 µM) | relative viability ([4]; first compound 0.001 µM) | relative viability ([4]; first compound 0.003162 µM) | relative viability ([4]; first compound 0.01 µM) | relative viability ([4]; first compound 0.03162 µM) | relative viability ([4]; first compound 0.1 µM) |
| --- | --- | --- | --- | --- | --- | --- | --- | --- | --- | --- | --- | --- | --- | --- | --- | --- | --- | --- | --- | --- |
| 201T | 1.04 | 1.03 | 1.04 | 0.681 | 0.278 | 1.17 | 1.24 | 1.24 | 1.19 | 0.494 | 0.551 | 0.654 | 0.472 | 0.32 | 0.29 | 1.03 | 1.09 | 1.12 | 0.952 | 0.401 |
| A-427 | 1 | 0.899 | 0.443 | 0.195 | 0.171 | 0.918 | 0.907 | 0.719 | 0.189 | 0.124 | 0.67 | 0.629 | 0.183 | 0.126 | 0.109 | 0.99 | 0.996 | 0.68 | 0.225 | 0.139 |
| ABC-1 | 0.618 | 1.05 | 0.371 | 0.25 | 0.151 |  |  |  |  |  | 0.548 | 0.483 | 0.373 | 0.175 | 0.175 | 0.344 | 0.313 | 0.372 | 0.233 | 0.239 |
| BEN | 0.528 | 0.317 | 0.14 | 0.12 | 0.107 | 0.0578 | 0.0698 | 0.0605 | 0.0528 | 0.0444 | 0.331 | 0.254 | 0.18 | 0.0876 | 0.109 | 0.79 | 0.669 | 0.198 | 0.118 | 0.113 |
| CAL-12T | 0.87 | 0.238 | 0.245 | 0.236 | 0.173 | 1.14 | 1.1 | 0.845 | 0.164 | 0.141 | 0.473 | 0.395 | 0.302 | 0.128 | 0.114 | 1.01 | 0.822 | 0.521 | 0.267 | 0.254 |
| COR-L23 | 0.742 | 0.704 | 0.311 | 0.143 | 0.0841 | 0.951 | 0.96 | 0.381 | 0.0768 | 0.0895 | 0.606 | 0.495 | 0.201 | 0.0891 | 0.0729 | 1.04 | 0.949 | 0.66 | 0.114 | 0.101 |
| COR-L 105 | 0.886 | 0.793 | 0.571 | 0.275 | 0.188 | 0.792 | 0.581 | 0.544 | 0.291 | 0.263 | 0.295 | 0.318 | 0.274 | 0.198 | 0.154 | 0.867 | 0.851 | 0.479 | 0.23 | 0.201 |
| Calu-6 |  |  |  |  |  | 0.789 | 0.317 | 0.111 | 0.0922 | 0.0731 |  |  |  |  |  | 1.04 | 0.57 | 0.26 | 0.167 | 0.159 |
| ChaGo-K-1 | 0.603 | 0.474 | 0.259 | 0.183 | 0.186 | 0.939 | 0.443 | 0.361 | 0.26 | 0.266 | 0.535 | 0.544 | 0.205 | 0.144 | 0.166 | 1 | 0.424 | 0.341 | 0.23 | 0.303 |
| EBC-1 |  |  |  |  |  | 0.268 | 0.187 | 0.136 | 0.19 | 0.126 |  |  |  |  |  | 0.53 | 0.307 | 0.15 | 0.198 | 0.164 |
| EKVX | 1.06 | 0.727 | 0.456 | 0.182 | 0.115 | 0.93 | 0.89 | 0.0897 | 0.133 | 0.0934 | 0.471 | 0.658 | 0.546 | 0.232 | 0.172 | 0.995 | 1.07 | 0.461 | 0.18 | 0.142 |
| EMC-BAC-2 | 1.29 | 1.17 | 1.04 | 0.222 | 0.194 | 1.21 | 1.17 | 1.11 | 0.147 | 0.136 | 0.348 | 0.352 | 0.181 | 0.124 | 0.137 | 1.09 | 1.1 | 1.08 | 0.161 | 0.169 |
| EPLC-272H | 0.145 | 0.323 | 0.337 | 0.16 | 0.135 | 1.14 | 0.953 | 0.395 | 0.0915 | 0.07 | 0.421 | 0.433 | 0.153 | 0.112 | 0.0503 | 0.87 | 0.786 | 0.419 | 0.358 | 0.121 |
| H3255 | 0.899 | 0.752 | 0.707 | 0.271 | 0.248 | 0.558 | 0.404 | 0.135 | 0.121 | 0.106 | 0.333 | 0.38 | 0.349 | 0.225 | 0.296 | 0.848 | 0.547 | 0.576 | 0.19 | 0.199 |
| HARA | 0.683 | 0.847 | 0.719 | 0.0504 | 0.0409 | 1.15 | 1.17 | 1.1 | 0.289 | 0.0674 | 0.244 | 0.331 | 0.241 | 0.228 | 0.0727 | 1.15 | 1.22 | 1.04 | 0.695 | 0.1 |
| HCC-15 | 0.305 | 0.234 | 0.32 | 0.15 | 0.0821 | 0.718 | 0.702 | 0.69 | 0.441 | 0.0936 | 0.589 | 0.666 | 0.561 | 0.0908 | 0.0718 | 1.06 | 0.986 | 0.931 | 0.915 | 0.255 |
| HCC-44 | 1.07 | 0.979 | 0.813 | 0.261 | 0.226 | 0.97 | 0.993 | 0.893 | 0.173 | 0.154 |  |  |  |  |  | 0.895 | 0.874 | 0.701 | 0.393 | 0.131 |
| HCC-78 |  |  |  |  |  | 0.795 | 0.428 | 0.191 | 0.119 | 0.104 | 0.322 | 0.31 | 0.232 | 0.154 | 0.209 | 0.593 | 0.314 | 0.335 | 0.302 | 0.193 |
